Source: paper PMC4126480, “Evaluation of drug interaction potential of Labisia pumila (Kacip Fatimah) and its constituents” (Frontiers in Pharmacology, 2014)

Assays:
P-gp [1] = biological target: T1, P-gp (Homo sapiens, UniProt P08183); assay: P-gp inhibition by 3H-digoxin basolateral to apical transport in hMDR1-MDCK-II cells
Method: The cells were seeded at a density of 120,000 cells/well in 12-well Transwell plates and cultured for 3 days. […] Cells were washed with warm HBSS buffer supplemented with 10 mM HEPES (pH 7.4) and pre-incubated with 0.5 mL of buffer containing test samples (six concentrations) on the apical side and 1.5 mL of buffer on the basolateral side for 30 min (37 °C, 5% CO2, and 95% relative humidity). […] Aliquots of 25 μL were taken out from the apical side, mixed with 100 μL of scintillant (Microscint TM-40, PerkinElmer) and radioactive counts were measured on a TopCount microplate scintillation counter (PerkinElmer, Waltham, MA, USA) in CPM mode.
The inhibition of the basolateral to apical (B-A) transport of digoxin by test samples was calculated compared to the vehicle control.

PXR = biological target: T2, PXR (Homo sapiens, UniProt O75469); assay: Inhibition of rifampicin-induced PXR activity, reporter gene assay in HepG2 cells; format: cell-based; settings: extract 3–30 μg/mL, saponins 3–30 μM
T2 construct: expressed in transfected cells; host or cells: HepG2 cells, transient electroporation with pSG5-PXR and the CYP3A4-PXRE-LUC reporter
T2 sequence (O75469 1-434): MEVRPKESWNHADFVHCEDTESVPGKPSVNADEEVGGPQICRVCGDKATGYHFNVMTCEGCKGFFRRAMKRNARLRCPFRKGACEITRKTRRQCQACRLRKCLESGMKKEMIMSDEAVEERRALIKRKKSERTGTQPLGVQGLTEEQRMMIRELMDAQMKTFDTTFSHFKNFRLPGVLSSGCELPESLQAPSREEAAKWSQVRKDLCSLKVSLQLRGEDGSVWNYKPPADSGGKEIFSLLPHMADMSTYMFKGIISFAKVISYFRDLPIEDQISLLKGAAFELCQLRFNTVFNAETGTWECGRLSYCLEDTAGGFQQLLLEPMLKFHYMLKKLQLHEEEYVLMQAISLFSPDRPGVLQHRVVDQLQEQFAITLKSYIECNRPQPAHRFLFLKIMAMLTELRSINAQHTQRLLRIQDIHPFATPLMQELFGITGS
Description: The pSG5-hPXR expression vector was provided generously by Dr. Steven Kliewer (University of Texas Southwestern Medical Center, Dallas, TX, USA; [Lehmann et al., 1998]) and the reporter plasmid CYP3A4-PXR response element (PXRE)-LUC (containing the proximal 0/–362 and distal 7208/7797 PXRE regions fused upstream of luciferase; [Goodwin et al., 1999]) was a kind gift from Dr. Christopher Liddle (University of Sydney, Westmead, NSW, Australia). The modulation of PXR activity by test samples was determined in HepG2 cells transiently transfected with pSG5-PXR (25 μg) and PCR5 plasmid DNA (25 μg) by electroporation at 180 V, 1 pulse for 70 msec. The cells were plated in 96-well plates at a density of 50,000 cells per well. […] After additional 24 hour incubation, the media was aspirated and 40 μL of luciferase reagent (Promega Corporation, Madison, WI, USA) was added to each well and luminescence was measured on Spectramax M5 plate reader (Molecular Devices, Sunnyvale, CA, USA). The fold induction in luciferase activity in the treated cells was calculated in comparison to vehicle treated cells. The cytotoxicity of test samples toward HepG2 cells was also determined by measuring the cell viability using the CellTiter 96 AQueous One Solution Cell Proliferation Assay (MTS) as described earlier ([Manda et al., 2013]).

[2] = Estimation of concentration per dose, GIT and plasma concentrations (560 mg KF extract dose); design: species or system human; settings: for Estimated concentration per dose: 560 mg KF extract, single dose, from % yield; for Estimated GIT concentration / Estimated Plasma concentration: 560 mg dose; for Estimated GIT concentration: human GIT volume 250 mL; for Estimated Plasma concentration: Table 2, plasma volume 3 L, 100% bioavailable assumed
Method: All assumptions to predict the HDI potential of KF methanolic extract and its constituents were according to previously published report ([Awortwe et al., 2014]). The % yield was calculated from the amounts extracted from the KF roots ([Ali and Khan, 2011]). The human GIT volume is 250 mL and plasma volume is about 3 L. The commonly used maximum dose of KF extract capsules is 560 mg per day ([Abdul Kadir et al., 2012]) and accordingly we estimated the concentration per dose, GIT, and plasma concentrations of extract and its constituents. We then compared the in vitro IC50 values obtained from recombinant CYPs with estimated GIT and plasma concentrations. If the IC50 values were lower than the GIT or plasma concentration, then the test compound or extract is likely to cause HDI in vivo.

P-gp [3] = biological target: T1, P-gp; assay: P-gp inhibition by calcein-AM uptake in hMDR1-MDCK-II cells
Method: Cells were seeded in 96-well plates at 70,000 cells/well in 200 μL of culture medium. The medium was changed at 24 h after seeding and the assay was performed 48 h later.

[4] = system: hMDR1-MDCK-II cell monolayers; assay: Monolayer integrity: permeability of Lucifer yellow; format: in vitro ADME, canine; settings: paracellular marker
Method: The cells were seeded at a density of 120,000 cells/well in 12-well Transwell plates and cultured for 3 days. TEER values were in the range of 500–800 Ω cm^2. Cells were washed with warm HBSS buffer supplemented with 10 mM HEPES (pH 7.4) and pre-incubated with 0.5 mL of buffer containing test samples (six concentrations) on the apical side and 1.5 mL of buffer on the basolateral side for 30 min (37 °C, 5% CO2, and 95% relative humidity).

T1 sequence (P08183 whole entry): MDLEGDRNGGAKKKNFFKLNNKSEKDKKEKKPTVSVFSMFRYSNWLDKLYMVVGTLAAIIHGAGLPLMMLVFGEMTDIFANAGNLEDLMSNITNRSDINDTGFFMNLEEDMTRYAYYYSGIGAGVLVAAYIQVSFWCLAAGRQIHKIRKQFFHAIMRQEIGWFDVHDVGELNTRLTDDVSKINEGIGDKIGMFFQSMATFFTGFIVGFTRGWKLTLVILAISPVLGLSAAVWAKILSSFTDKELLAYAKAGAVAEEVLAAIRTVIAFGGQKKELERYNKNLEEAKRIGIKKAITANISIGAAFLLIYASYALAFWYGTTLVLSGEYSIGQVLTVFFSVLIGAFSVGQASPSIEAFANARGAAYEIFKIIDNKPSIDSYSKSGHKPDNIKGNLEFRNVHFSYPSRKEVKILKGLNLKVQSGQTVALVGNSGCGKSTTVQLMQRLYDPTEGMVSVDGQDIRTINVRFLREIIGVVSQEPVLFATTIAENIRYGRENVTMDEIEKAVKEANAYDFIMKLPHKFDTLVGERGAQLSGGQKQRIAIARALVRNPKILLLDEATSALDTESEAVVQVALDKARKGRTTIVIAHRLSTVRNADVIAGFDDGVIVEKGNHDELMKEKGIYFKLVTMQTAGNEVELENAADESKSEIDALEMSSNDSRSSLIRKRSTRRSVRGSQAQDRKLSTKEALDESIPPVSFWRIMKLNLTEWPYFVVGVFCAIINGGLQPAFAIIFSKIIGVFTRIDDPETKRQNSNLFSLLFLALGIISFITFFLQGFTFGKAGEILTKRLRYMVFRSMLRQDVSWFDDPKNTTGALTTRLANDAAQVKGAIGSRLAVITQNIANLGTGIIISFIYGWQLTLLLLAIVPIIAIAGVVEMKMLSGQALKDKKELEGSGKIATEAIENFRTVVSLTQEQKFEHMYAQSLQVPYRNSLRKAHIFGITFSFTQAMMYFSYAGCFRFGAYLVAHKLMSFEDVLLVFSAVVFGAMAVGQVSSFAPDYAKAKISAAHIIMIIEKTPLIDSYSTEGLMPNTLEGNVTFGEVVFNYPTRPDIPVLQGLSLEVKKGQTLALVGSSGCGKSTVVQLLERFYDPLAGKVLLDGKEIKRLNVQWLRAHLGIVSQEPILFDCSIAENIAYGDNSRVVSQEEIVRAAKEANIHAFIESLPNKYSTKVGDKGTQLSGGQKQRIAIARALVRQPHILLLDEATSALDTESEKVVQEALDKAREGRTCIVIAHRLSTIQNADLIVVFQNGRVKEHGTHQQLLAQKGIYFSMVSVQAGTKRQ

Molecule	IC50 (P-gp [1]) [µM]	Effect on rifampicin-induced PXR activity (PXR)	Estimated concentration per dose [2] [mg/mL]	Estimated GIT concentration [2] [µg/mL]	Estimated Plasma concentration [2] [µg/mL]	EC50 (P-gp [3]) [µM]	Papp value [4]
C[C@@H]1O[C@@H](O[C@H]2[C@H](O[C@H]3CO[C@@H](O[C@H]4CC[C@]5(C)[C@H]6CC[C@]78OC[C@@]9(CC[C@](C)(C=O)C[C@H]97)C(=O)C[C@@]8(C)[C@]6(C)CC[C@H]5C4(C)C)[C@H](O)[C@H]3O)O[C@H](CO)[C@@H](O)[C@@H]2O)[C@H](O)[C@H](O)[C@H]1O [Ardisimamilloside H]	4.2 ± 1.1	dose dependently decreased	0.011	0.047	0.003	42 ± 3.5	–
CC1(C)[C@@H](O[C@@H]2OC[C@H](O[C@@H]3O[C@H](CO)[C@@H](O)[C@H](O)[C@H]3O[C@@H]3OC[C@@H](O)[C@H](O)[C@H]3O)[C@H](O)[C@H]2O)CC[C@]2(C)[C@H]3CC[C@]45OC[C@@]6(CC[C@](C)(C=O)C[C@H]64)[C@H](O)C[C@@]5(C)[C@]3(C)CC[C@@H]12 [Primulanin]	6.4 ± 2.3	dose dependently decreased	0.07	0.31	0.026	34 ± 2.3	–
Lucifer yellow [LY]	–	–	–	–	–	–	1.1 ± 0.8 × 10^-6 cm/s
